Test results reported in patent publication US4616025A, “Thiazolidine derivatives, process for the preparation and pharmaceutical compositions thereof” (Richter Gedeon Vegyeszeti Gyar RT, priority 1983, dated 1986).
Entries after “also recorded” stand apart in the source; their conditions may differ. Where two headings read alike, the source gives them in different places.

How the values were obtained:
[1] = system: aspirin-induced gastric ulcers; experiment: Aspirin-induced stomach ulcer; format: in vivo, rat (female H-Wistar)
Protocol: It is known that the non-steroidal antiinflammatory agents induce gastointestinal ulceration to certain extent (Drugs and Peptic Ulcer, Ed. Pfeiffer, CRC Press, New York 1982). To test anti-ulcer compounds the so-called Aspirin-induced ulcer model is widely used. Female H-Wistar rats weighing 120-150 g each were fasted for 24 hours. Water was allowed ad libitum. The stomach ulcer was induced by oral administration of 100 mg/kg Aspirin (in Tween 80 suspension). The test drug was given simultaneously with the administration of Aspirin, orally. The animals were killed by an overdose of ether, 4 hours after treatment. The stomach was excised and cut along the large curvature. The contents were slightly washed and the haemorrhagic lesions in the glandular surface were counted. When evaluating the test results, the number of ulcers per stomach or the ulcer-free animals were determined.

[2] = system: gastric acid secretion; experiment: Gastric acid secretion in Shay-rats (pylorus ligation, 4 hours); format: in vivo, rat (female H-Wistar)
Protocol: The method was first described by Shay et al in 1945 (Gastroenterology 56, 5-13, 1945). Female H-Wistar rats (120-150 g) were gasted for 24 hours. Water was allowed ad libitum. The pylorus of the animals was ligated in slight ether narcosis. […] 4 hours after treatment the animals were killed by an overdose of ether. The stomach was excised and cut along the large curvature. The volume and the pH of the contents were determined, in certain cases the HCl production was determined by titration.

[3] = system: indomethacin-induced intestinal ulceration; experiment: Indomethacin-induced fatal intestinal ulceration (15 mg/kg p.o.), inflation technique; format: in vivo, rat (female H-Wistar); details: for ED100: Rattus norvegicus, po
Protocol: Indomethacin-induced intestinal ulceration
Of the non-steroidal antiinflammatory agents indomethacin has not only a gastric-ulcer inducing side-effect but may also cause serious intestinal ulceration. Depending on the dose, the intestinal ulceration may be fatal, peritonitis due to intestinal perforations kills the animals.
(a) Indomethacin-induced fatal intestinal ulceration
Non-fasted, female H-Winstar rats, weighing 120-150 g each were treated orally with a 15 mg/kg dose of indomethacin (in Tween 80 suspension). […] Under these conditions it requires about 48 to 72 hours to detect intenstinal ulceration.
(§1) To evaluate the development of intestinal ulcers the so-called inflation technique by Ezer and Szporny (J. Pharm. Pharmacol. 27, 866 (1975)) was employed. By this method the progress of ulceration can be monitored quantitatively. The tensile strength of the intestinal wall expressed in mmHg weakens gradually parallel with the progress of ulceration.

[4] = system: indomethacin-induced non-fatal intestinal ulceration; experiment: Indomethacin-induced (7.5 mg/kg p.o.) non-fatal intestinal ulceration, post-treatment, inflation technique; format: in vivo, rat (H-Wistar); details: for Non-fatal intestinal ulceration post-treatment, in words: post-treatment 4, 24 and 48 hours after indomethacin 7.5 mg/kg p.o.
Protocol: as §1
(b) Indomethacin-induced non-fatal ulceration
Non-fasted H-Wistar rats weighing 120 to 150 g each were administered 7.5 mg/kg indomethacin orally, to induce non-fatal intestinal ulceration. 4, 24 and 48 hours, respectively, after the indomethacin treatment the animals were treated with the test material orally. The animals were killed 24 hours after the last treatment and 72 hours after the ulcer-induction performed with indomethacin, respectively. Ulceration was evaluated by the inflation technique.

[5] = system: gastric necrosis induced by absolute alcohol; experiment: Gastric necrosis induced by absolute alcohol (cytoprotection); format: in vivo, rat (female H-Wistar)
Protocol: Gastric necrosis induced by absolute alcohol
Water was allowed ad libitum. The compounds to be tested were administered orally, 30 minutes prior to the administration of 0.5 ml of ethanol/100 g of body weight through a canula. Two hours later the animals were killed by overdosing ether. Stomachs were removed and opened along the major curvature. […] Degree of the cytoprotection was expressed in % related to the control.

[6] = Toxicological studies
Protocol: For intravenous administration the compound was dissolved in dimethyl formamide.

[7] = system: gastric ulcers induced by indomethacin; experiment: Gastric ulcers induced by a 20 mg/kg oral dose of indomethacin; format: in vivo; details: 20 mg/kg oral dose of indomethacin
[8] = system: ulcer; experiment: Anti-ulcer activity in general (pharmacological tests); format: in vivo; details: compared with cimetidine
From the text: The pharmacological activity of the new compounds has been investigated by the following methods: […]

[9] = Solubility in water
[10] = system: intestinal ulceration induced by indomethacin; details: literature; cited from earlier work
[11] = system: formation of ulcers; details: cited from earlier work
[12] = Aspirin (control) 100 mg/kg p.o., n=20
[13] = 10 mg/kg i.p., 15 min. prior to operation, n=5
[14] = 10 mg/kg s.c., 15 min prior to operation, n=5
[15] = 10 mg/kg, 15 min prior to operation, n=5
[16] = Aspirin 100 + 1.5 mg/kg p.o., n=10
[17] = Aspirin 100 + 3.0 mg/kg p.o., n=17
[18] = Aspirin 100 + 6.0 mg/kg p.o., n=17
[19] = Aspirin 100 + 12.0 mg/kg p.o., n=14
[20] = Aspirin 100 + 25.0 mg/kg p.o., n=17
[21] = indomethacin 15 + 15 mg/kg p.o.
[22] = indomethacin 15 + 25 mg/kg p.o.
[23] = indomethacin 15 + 50 mg/kg p.o.
[24] = indomethacin 15 mg/kg p.o. alone, n=16

## CC(=O)Oc1ccccc1C(=O)O [Aspirin, reference compound]
[1]; [12]
  Number of ulcers/stomach: 15.7 ± 3.0
  Ulcer-free animals: 0%

## N#CN=C1SCCN1Cc1ccccc1 [Compound A, 3-Benzyl-2-cyanimino-thiazolidine]
[2]; 1.25 mg/kg i.p., n=5
  Acid secretion: 436 μmol HCl/100 g b.w.
[2]; 2.5 mg/kg i.p., n=10
  Acid secretion: 358 μmol HCl/100 g b.w.
  Inhibition of acid secretion: 17%
[2]; 5.0 mg/kg i.p., n=10
  Acid secretion: 301 μmol HCl/100 g b.w.
  Inhibition of acid secretion: 30%
[2]; [13]
  Gastric acid secretion (volume): 2.5 ml/100 g, b.w.
  Gastric acid secretion, pH: 3.7
  Gastric acid secretion, vol. inhibition: 42%
[2]; 10.0 mg/kg i.p., n=20
  Inhibition of acid secretion: 100%
[2]; [14]
  Gastric acid secretion (volume): 2.8 ml/100 g, b.w.
  Gastric acid secretion, pH: 1.5
  Gastric acid secretion, vol. inhibition: 35%
[2]; [15]
  Gastric acid secretion (volume): 2.3 ml/100 g, b.w.
  Gastric acid secretion, pH: 4.1
  Gastric acid secretion, vol. inhibition: 47%
[2]; 25.0 mg/kg i.p., n=5
  Inhibition of acid secretion: 100%
[2]; Rattus norvegicus, ip, 4 h, i.p., Shay rats, read-out: ED50, gastric acid secretion inhibition
  ED50: 5.3 mg/kg
[2]; Table 1, i.p.
  Gastric acid secretion decreasing effect, in words: dose-dependent gastric acid secretion decreasing effect
[2]; administered orally
  Gastric acid secretion inhibition on oral administration, in words: effectively inhibits the gastric acid secretion also when administered orally
[2]; comparison of i.p., s.c. and p.o. data
  Oral absorption: good oral absorption
[1]; [16]
  Number of ulcers/stomach: 9.5
  Ulcer inhibition: 40%
  Ulcer-free animals: 0%
[1]; [17]
  Number of ulcers/stomach: 6.8
  Ulcer inhibition: 57%
  Ulcer-free animals: 23%
[1]; [18]
  Number of ulcers/stomach: 4.7
  Ulcer inhibition: 71%
  Ulcer-free animals: 29%
[1]; [19]
  Number of ulcers/stomach: 2.2
  Ulcer inhibition: 86%
  Ulcer-free animals: 66%
[1]; [20]
  Number of ulcers/stomach: 2.3
  Ulcer inhibition: 85%
  Ulcer-free animals: 41%
[1]; Rattus norvegicus, po, 4 h, simultaneous administration
  ED50: 2.1 mg/kg
[1]; simultaneous administration, depending on the dose
  Aspirin-induced gastric ulceration, in words: inhibits the formation of the aspirin-induced gastric ulceration
[3]; simultaneous with indomethacin 15 mg/kg, read-out: ED100
  ED100: 50 mg/kg
[3]; [21]
  Intestinal wall resistency in % of normal: 52 % of normal
  T.s. of intestinal wall 72 hours after treatment: 120 ± 20 mm Hg
[3]; [22]
  Intestinal wall resistency in % of normal: 83 % of normal
  T.s. of intestinal wall 72 hours after treatment: 192 ± 18 mm Hg
[3]; [23]
  Intestinal wall resistency in % of normal: 97 % of normal
  T.s. of intestinal wall 72 hours after treatment: 225 ± 6 mm Hg
[3]; simultaneous administration, indomethacin 15 mg/kg p.o.
  Indomethacin-induced intestinal ulceration, in words: dose-dependent inhibiting effect; also recorded: inhibits the indomethacin-induced intestinal ulceration
[4]; 7.5 + 3 × 25 mg/kg p.o., 4, 24, 48 hours after indomethacin
  T.s. of intestinal wall 72 hours after indomethacin treatment: 176 ± 20 mm Hg
[4]; 7.5 + 3 × 50 mg/kg p.o., 4, 24, 48 hours after indomethacin
  T.s. of intestinal wall 72 hours after indomethacin treatment: 249 ± 4 mm Hg
[4]
  Non-fatal intestinal ulceration post-treatment, in words: can normalize the tensile strength of the intestine wall
[5]; 1.5 mg/kg p.o.
  Cytoprotection: 37%
  Length of average lesion: 52.5 ± 19 mm/stomach
[5]; 3.0 mg/kg p.o.
  Cytoprotection: 58%
  Length of average lesion: 34.8 ± 10 mm/stomach
[5]; 6.0 mg/kg p.o.
  Cytoprotection: 64%
  Length of average lesion: 29.9 ± 9 mm/stomach
[5]; 12.0 mg/kg p.o.
  Cytoprotection: 60%
  Length of average lesion: 32.9 ± 5 mm/stomach
[5]; 25.0 mg/kg p.o.
  Cytoprotection: 78%
  Length of average lesion: 18.0 ± 8 mm/stomach
[5]; Rattus norvegicus, po, 30 minutes prior to ethanol
  ED50: 2.8 mg/kg
[5]; rat, in vivo
  Absolute alcohol-induced gastric necrosis, in words: effective against the gastric necrosis induced by absolute alochol; also recorded: effective also in the absolute alcohol necrosis test
[6]; 100 mg/kg, route not given, within 3 days
  Sickness / death: sickness of the test animals but no death occurs
[6]; 250 mg/kg, within 2 weeks
  Death: no death is observed
[6]; 1500 mg/kg i.p.
  Time to death of the animals: ≤ 30 min
[6]; 1500 mg/kg oral
  Behavior and food consumption of animals: normal
[6]; 1500 mg/kg oral, in the next week
  Further deaths: no further deaths are observed
[6]; 1500 mg/kg oral, within 24 hours
  Death of animals within 24 hours: 3 animals out of 10
[6]; first toxicological studies
  Therapeutic index: high therapeutic index
[7]
  Indomethacin-induced gastric ulcers, in words: effectively inhibited
[8]
  Spectrum of activity, in words: wider spectrum of activity than for example cimetidine
[9]
  Solubility in water: insoluble in water

## C[N+]1(C)[C@@H]2CC[C@H]1CC(OC(=O)C1c3ccccc3Oc3ccccc31)C2.[Br-] (stereo partly shown) [Gastrixon]
[10]
  Indomethacin-induced intestinal ulceration, in words: cannot prevent indomethacin-induced intestinal ulceration

## COc1ccc2c(c1)c(CC(=O)O)c(C)n2C(=O)c1ccc(Cl)cc1 [Indomethacin, reference compound]
[3]; [24]
  Intestinal wall resistency in % of normal: 20 % of normal
  T.s. of intestinal wall 72 hours after treatment: 46 ± 12 mm Hg
[4]; indomethacin 7.5 mg/kg p.o. alone, n=32, group B
  T.s. of intestinal wall 72 hours after indomethacin treatment: 185 ± 11 mm Hg

## O=C(O)c1ccccc1O [Na--salicylate, reference compound]
[3]
  ED100: 50 mg/kg
[3]; [22]
  Intestinal wall resistency in % of normal: 57 % of normal
  T.s. of intestinal wall 72 hours after treatment: 132 ± 17 mm Hg
[3]; [23]
  Intestinal wall resistency in % of normal: 100 % of normal
  T.s. of intestinal wall 72 hours after treatment: 231 ± 5 mm Hg

## CC(C)[N+](C)(CCOC(=O)C1c2ccccc2Oc2ccccc21)C(C)C [Propanthelin]
[10]
  Indomethacin-induced intestinal ulceration, in words: cannot prevent indomethacin-induced intestinal ulceration

## CN1CCN(CC(=O)N2c3ccccc3C(=O)Nc3cccnc32)CC1 [pirenzepine, 5,11-dihydro-11-[(4-methyl-1-piperazinyl)-acetyl]-6H-pyrido[2,3-b][1,4] benzodiazepine-6-one]
[11]; compared to atropine
  Inhibition of the formation of ulcers, in words: inhibits the formation of ulcers to the same extent as atropine
[11]; in vivo
  Other anticholinergic effects (e.g. inhibition of peristalsis, accommodation disturbances of eye, inhibition of salivation): devoid of other anticholenergic effects

## CNC(=C[N+](=O)[O-])NCCSCc1ccc(CN(C)C)o1 [ranitidine]
[4]
  Non-fatal intestinal ulceration post-treatment, in words: ineffective
